In general, Ki refers to the dissociation constant of the complex between target and ligand, obtained from inhibition or displacement.

This assay deals with T1, activated JNK3 (Homo sapiens, UniProt P53779).
T1 construct: One such construct encodes amino acid residues Ser40-Glu402 of JNK3α1 and is preceded by Met and Gly residues; Met-Gly dipeptide (initiator Met plus Gly added for the NcoI site) (N); made in house; host or cells: E. coli BL21 (DE3)
T1 sequence (P53779 40-402): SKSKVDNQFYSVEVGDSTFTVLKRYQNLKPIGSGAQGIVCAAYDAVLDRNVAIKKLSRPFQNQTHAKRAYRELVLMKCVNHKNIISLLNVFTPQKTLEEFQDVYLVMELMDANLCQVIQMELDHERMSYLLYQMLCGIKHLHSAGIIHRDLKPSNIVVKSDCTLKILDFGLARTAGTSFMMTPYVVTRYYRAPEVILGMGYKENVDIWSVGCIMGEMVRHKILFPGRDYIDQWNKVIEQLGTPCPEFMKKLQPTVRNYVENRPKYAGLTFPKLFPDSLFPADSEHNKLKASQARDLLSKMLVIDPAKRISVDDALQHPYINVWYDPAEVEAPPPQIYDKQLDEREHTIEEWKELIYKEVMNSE
As to the kind of experiment: JNK inhibition assay (spectrophotometric coupled-enzyme assay). Particulars: activated JNK3 10 nM, 10 μM ATP, 30° C.; read-out: JNK3 Activity (Ki class A-C). It counts as biochemical. From the text: A BLAST search of the EST database using the published JNK3α1 cDNA as a query identified an EST clone (#632588) that contained the entire coding sequence for human JNK3α1. Polymerase chain reactions (PCR) using pfu polymerase (Strategene) were used to introduce restriction sites into the cDNA for cloning into the pET-15B expression vector at the NcoI and BamHI sites. The protein was expressed in E. coli. Due to the poor solubility of the expressed full-length protein (Met 1-Gln 422), an N-terminally truncated protein starting at Ser residue at position 40 (Ser 40) was produced. This truncation corresponds to Ser 2 of JNK1 and JNK2 proteins, and is preceded by a methionine (initiation) and a glycine residue. The glycine residue was added in order to introduce an NcoI site for cloning into the expression vector. In addition, systematic C-terminal truncations were performed by PCR to identify a construct that give rise to diffraction-quality crystals. One such construct encodes amino acid residues Ser40-Glu402 of JNK3α1 and is preceded by Met and Gly residues.
The construct was prepared by PCR using deoxyoligonucleotides: 5′ […] 3′ (forward primer with initiation codon underlined)(SEQ ID NO:1) and 5′ […] 3′ (reverse primer with stop codon underlined)(SEQ ID NO:2) as primers and was confirmed by DNA sequencing.
E.coli strain BL21 (DE3) (Novagen) was transformed with the JNK3 expression construct and grown at 30° C. in LB supplemented with 100 μg/ml carbenicillin in shaker flasks until the cells were in log phase (OD600˜0.8). Isopropylthio-β-D-[…] (IPTG) was added to a final concentration of 0.8 mM and the cells were harvested 2 hours later by centrifugation.
E. coli cell paste containing JNK3 was resuspended in 10 volumes/g lysis buffer (50 mM HEPES, pH 7.2, containing 10% glycerol (v/v), 100 mM NaCl, 2 mM DTT, 0.1 mM PMSF, 2 μg/ml Pepstatin, lug/ml each of E-64 and Leupeptin). Cells were lysed on ice using a microfluidizer and centrifuged at 100,000×g for 30 min at 4° C. The 100,000×g supernatant was diluted 1:5 with Buffer A (20 mM HEPES, pH 7.0, 10% glycerol (v/v), 2 mM DTT) and purified by SP-Sepharose (Pharmacia) cation-exchange chromatography (column dimensions: 2.6×20 cm) at 4° C. The resin was washed with 5 column volumes of Buffer A, followed by 5 column volumes of Buffer A containing 50 mM NaCl. Bound JNK3 was eluted with a 7.5 column volume linear gradient of 50-300 mM NaCl. JNK3 eluted between 150-200 mM NaCl.
Five mg of JNK3 was diluted to 0.5 mg/ml in 50 mM HEPES buffer, pH 7.5, containing 100 mM NaCl, 5 mM DTT, 20 mM MgCl2 and 1 mM ATP. GST-MKK7(DD) was added at a molar ratio of 1:2.5 GST-MKK7:JNK3. After incubation for 30 minutes at 25° C., the reaction mixture was concentrated 5-fold by ultrafiltration in a Centriprep-30 (Amicon, Beverly, Mass.), diluted to 10 ml and an additional 1 mM ATP added. This procedure was repeated three times to remove ADP and replenish ATP. The final addition of ATP was 5 mM and the mixture incubated overnight at 4° C.
The activated JNK3/GST-MKK7(DD) reaction mixture was exchanged into 50 mM HEPES buffer, pH 7.5, containing 5 mM DTT and 5% glycerol (w/v) by dialysis or ultrafiltration. The reaction mixture was adjusted to 1.1 M potassium phosphate, pH 7.5, and purified by hydrophobic interaction chromatography (at 25° C.) using a Rainin Hydropore column. […] Activated JNK3 (i.e. doubly phosphorylated JNK3) was stored at −70° C. at 0.25-1 mg/ml.
Compounds were assayed for the inhibition of JNK3 by a spectrophotometric coupled-enzyme assay. In this assay, a fixed concentration of activated JNK3 (10 nM) was incubated with various concentrations of a potential inhibitor dissolved in DMSO for 10 minutes at 30° C. in a buffer containing 0.1 M HEPES buffer, pH 7.5, containing 10 mM MgCl2, 2.5 mM phosphoenolpyruvate, 200 μM NADH, 150 μg/mL pyruvate kinase, 50 μg/mL lactate dehydrogenase, and 200 μM EGF receptor peptide. […]
Take `CSc1sc(-c2ccnc(Nc3ccccc3)n2)c(-c2ccc(Cl)cc2)c1C#N` [IIa-10, 2-Methylsulfanyl-5-(2-phenylamino-pyrimidin-4-yl)-4-(4-chloro-phenyl)-thiophene-3-carbonitrile]: the inhibitory constant (Ki) is less than 100 nM.

Regarding `CCOc1sc(-c2ccnc(Nc3ccccc3)n2)c(-c2ccc(Cl)cc2)c1C#N` [IIa-11, 2-Ethoxy-5-(2-phenylamino-pyrimidin-4-yl)-4-(4-chloro-phenyl)-thiophene-3-carbonitrile], the inhibitory constant (Ki) was less than 100 nM.

`CSc1sc(-c2ccnc(Nc3ccccc3)n2)c(-c2ccc(C)cc2)c1C#N` [IIa-14, 2-Methylsulfanyl-5-(2-phenylamino-pyrimidin-4-yl)-4-p-tolyl-thiophene-3-carbonitrile]: the inhibitory constant (Ki) was less than 100 nM.

Take `CCOc1sc(-c2ccnc(Nc3ccccc3)n2)c(-c2ccc(C)cc2)c1C#N` [IIa-15, 2-Ethoxy-5-(2-phenylamino-pyrimidin-4-yl)-4-p-tolyl-thiophene-3-carbonitrile]: the inhibition constant (Ki) is less than 100 nM.

(Values after patent US6642227B2, “Inhibitors of c-Jun N-terminal kinases (JNK) and other protein kinases” (Vertex Pharmaceuticals Incorporated, priority 2001, dated 2003).)
